From US20220401411A1, “ZAFIRLUKAST DERIVATIVES FOR USE AS CONTRACEPTIVE AGENTS” (Rigshospitalet, priority 2019, published 2022)

Biological target: T1, human CatSper (Homo sapiens, UniProt Q7RTX7+Q86XQ3+Q8NEC5+Q96P56)
T1 construct: isolated motile sperm cells from freshly ejaculated semen samples of healthy human donors; endogenous in cells; host or cells: motile human sperm cells from ejaculates of healthy donors (swim-up)
Assay: Inhibition of CatSper activation in human sperm cells, Ca2+-fluorophore plate reader assay
Format: cell-based
Conditions: for Inhibition of activation of human CatSper by progesterone / Inhibition of activation of human CatSper by intracellular alkalization via NH4Cl: low μM doses, human sperm cells, [Ca2+]i fluorescence; for Inhibition of activation of human CatSper by progesterone: 500 nM progesterone; for Inhibition of activation of human CatSper by intracellular alkalization via NH4Cl: 3 mM NH4Cl; for IC50: motile human sperm cells (swim-up), Ca2+-fluorophore, CatSper activated by 500 nM progesterone, dose inhibition curve, read-out: IC50, inhibition of progesterone-induced signals through CatSper
Text: (§1) Isolated live and motile human sperm cells were loaded with a Ca^2+-sensitive fluorophore, washed and aliquoted to a 384-well plate placed in a fluorescence plate reader. Readouts in ΔF/F0 (%) on the y-axis reflect the intracellular concentration of Ca^2+ ([Ca^2+],) in the sperm cells as a function of time (FIG. 1, 2, 4) or dose of zafirlukast (FIG. 3).
After measuring the baseline fluorescence for 80s serially diluted doses of zafirlukast as well as a negative buffer control (FIGS. 1 and 4) were added to the sperm cells. Hereafter the measurement was continued for a few minutes before a second addition of 500 nM progesterone (FIG. 1) or 3 mM NH4Cl (FIG. 4) to activate CatSper. […] CatSper-signals induced by 500 nM progesterone (FIG. 2) in the presence of serially diluted doses of zafirlukast are used for the dose inhibition curve for zafirlukast on progesterone-induced signals through CatSper (FIG. 3).
as §1, with “5, 6, 8)” for “1, 2, 4)”, “aniline derivate” for “zafirlukast”, “7).” for “3).”
After measuring the baseline fluorescence for 80s serially diluted doses of aniline derivative as well as a negative buffer control (FIGS. 5 and 8) were added to the sperm cells. Hereafter the measurement was continued for a few minutes before a second addition of 500 nM progesterone (FIG. 5) or 3 mM NH4Cl (FIG. 8) to activate CatSper. […] CatSper-signals induced by 500 nM progesterone (FIG. 6) in the presence of serially diluted doses of the aniline derivative are used for the dose inhibition curve for aniline derivative on progesterone-induced signals through CatSper (FIG. 7).
(§2) To assess the effect of zafirlukast on CatSper in human sperm cells, we first isolated motile sperm cells from freshly ejaculated semen samples of healthy human donors through the swim-up method. Then we loaded these sperm cells with a Ca^2+-fluorophore, i.e. a molecule that emits light more intensively when [Ca^2+], increases. Hereafter we aliquoted these fluorophore-loaded sperm cells to the wells of micro-well plates and inserted the plate into a fluorescence plate reader, that measures the light emitted from the Ca^2+-fluorophore. After measuring the baseline fluorescence for 80s we added to the wells serially diluted doses of zafirlukast (FIGS. 1 and 4). Hereafter we continued the measurement for a few minutes before a second addition of 500 nM progesterone (FIG. 1) or 3 mM NH4Cl (FIG. 4) to activate CatSper.
as §2, with “the aniline derivative” for “zafirlukast”, “[Ca^2*],” for “[Ca^2+],”, “5” for “1”, “8).” for “4).”, “5)” for “1)”, “8)” for “4)”

| Inhibition of activation of human CatSper by progesterone | Inhibition of activation of human CatSper by intracellular alkalization via NH4Cl | IC50 [nM] | SMILES |
| --- | --- | --- | --- |
| inhibits the activation of human CatSper | inhibits the activation of human CatSper | ~900 | COc1cc(C(=O)NS(=O)(=O)c2ccccc2C)ccc1Cc1cn(C)c2ccc(N)cc12 [aniline derivative] |
| inhibits the activation of human CatSper | inhibits the activation of human CatSper | ~2200 | COc1cc(C(=O)NS(=O)(=O)c2ccccc2C)ccc1Cc1cn(C)c2ccc(NC(=O)OC3CCCC3)cc12 [zafirlukast] |
